In PMC9405123, “Design, Synthesis and Mechanistic Studies of Novel Isatin-Pyrazole Hydrazone Conjugates as Selective and Potent Bacterial MetAP Inhibitors” (Antibiotics, 2022):
In brackets after ≈: the same amount, converted by molar mass.

Tests used:
MtMetAP1c = target: T1, MtMetAP1c (Mycobacterium tuberculosis, UniProt P9WK19); assay: MetAP enzyme inhibition, Morrison Ki (Met-AMC fluorescence); type: biochemical, M. tuberculosis; settings: Morrison Ki method
T1 construct: made in house
Procedure: MetAP appears to serve a vital role in the co- or post-translational modification of proteins, making it essential for bacterial cell metabolism and survival. In this study, all enzymes, which were used for this study, including MtMetAP1c (M. tuberculosis), EfMetAP1a (E. faecalis), SpMetAP1a (S. pneumoniae) and HsMetAP1b (H. sapiens) enzymes, were expressed and purified in our lab as previously reported. All compounds prepared 10 mM stocks in DMSO and were used for enzyme inhibition studies. The concentration of each enzyme is adjusted such that they have similar reaction rates (HsMetAp1b, 1 µM; SpMetAP1a, 5 µM; EfMetAP1a, 1 µM; MtMetAP1c, 1 µM;) as reported earlier. All assays were performed in […] reaction containing 50 mM HEPES (pH 7.5 for SpMetAP1a and HsMetAP1b; 8.0 for EfMetAP1a, MtMetAP1c, […]), 150 mM NaCl, and CoCl2 (three molar equivalents of corresponding enzymes). The reaction was started by adding 50 μM L-Methionine 7-amido-4-methyl coumarin (Met-AMC) and continuously monitoring the fluorescence of released 7-amino-4-methyl coumarin (AMC) (380 nm excitation and 460 nm emission) in a microplate multimode reader (TECAN, Austria). The maximum percentage of inhibition against enzymes is calculated at […] compound concentration. […] The Ki values were determined according to the Morrison method using three different concentrations of substrates and ten different concentrations of the inhibitor. All experiments were performed in triplicate. GraphPad Prism version 8.0.0 (San Diego, CA, USA) was used to determine all the kinetic parameters.

B. subtilis [1] = assay: Growth inhibition screening (broth dilution); type: cell-based, Bacillus subtilis
How it was run: (§1)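 Standard NCCLS broth dilution in nutrient broth, with compounds dissolved in DMSO and tested at a final 250 µg/mL per well. About 2.5 × 10^5 cells/mL were inoculated and incubated overnight at 37 °C. Growth was read as culture turbidity at 590 nm.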

P. aeruginosa [2] = assay: Growth inhibition screening (broth dilution); type: cell-based, Pseudomonas aeruginosa
How it was run: as §1

K. pneumoniae = assay: Growth inhibition screening (broth dilution); type: cell-based, Klebsiella pneumonia
How it was run: as §1

B. subtilis [3] = assay: Minimum inhibitory concentration (broth dilution); type: cell-based; settings: Bacillus subtilis, alone
E. faecalis [4] = assay: Minimum bactericidal concentration; type: cell-based, Enterococcus faecalis
S. aureus [5] = assay: Minimum bactericidal concentration; type: cell-based, Staphylococcus aureus
P. aeruginosa [6] = assay: Minimum bactericidal concentration; type: cell-based, Pseudomonas aeruginosa; settings: Pseudomonas aeruginosa
E. coli = assay: Growth kinetics; type: cell-based, Escherichia coli
Procedure: (§2) Bacterial strains were tested as mentioned in Habib et al.. Briefly, ½ MIC, MIC and 2MIC values of PS9 were taken to assess the growth of bacterial strains whereas untreated cells and media were taken as positive and negative control, respectively.

E. faecalis [7] = assay: Growth kinetics; type: cell-based, Enterococcus faecalis
Procedure: as §2

E. faecalis [8] = assay: Time-kill curve assay; type: cell-based, Enterococcus faecalis
Procedure: A time–kill curve study was performed against bacterial strains (E. coli, E. faecalis, K. pneumonia and P. aeruginosa) to determine whether compound PS9 is bactericidal or bacteriostatic. MIC, 2MIC and 4MIC concentrations were employed for the time–kill assay as explained by Ali et al.. Untreated bacterial cells were used as a control. 100 µL aliquot was taken from each flask at regular intervals. An aliquot was further diluted in phosphate buffer saline solution and from each concentration 50 µL aliquot was inoculated on a nutrient agar plate and spread. Colonies were counted after the incubation of the plate at 37 °C. For each strain, the average (mean) colony count data (log10 CFU/mL) was plotted against time.

HK1 = assay: MBC on environmental MDR isolate
HK32 = assay: MBC on environmental MDR isolate; settings: Enterobacter cloacae
SH28 [9] = assay: MBC on environmental MDR isolate; settings: Aeromonas caviae
JST68 = assay: MBC on environmental MDR isolate; settings: Escherichia coli
S. aureus [10] = assay: Combination study with AMP or CIP
HK43 = assay: MIC on environmental MDR isolate (microdilution); settings: Exiguobacterium mexicanum
SH28 [11] = assay: MIC on environmental MDR isolate (microdilution); settings: Aeromonas caviae
SH34 = assay: MIC on environmental MDR isolate (microdilution); settings: Serratia marcescens
LG24 = assay: MIC on environmental MDR isolate (microdilution); settings: Escherichia coli
JST61 = assay: MIC on environmental MDR isolate (microdilution); settings: Pantoea agglomerans
JST78 = assay: MIC on environmental MDR isolate (microdilution); settings: Escherichia coli
S. aureus 33,591 = assay: In vivo antibacterial efficacy in infected larvae; settings: PS9 1000 μg/mL 30 min post-infection, up to 72 h

T1 sequence (P9WK19 whole entry): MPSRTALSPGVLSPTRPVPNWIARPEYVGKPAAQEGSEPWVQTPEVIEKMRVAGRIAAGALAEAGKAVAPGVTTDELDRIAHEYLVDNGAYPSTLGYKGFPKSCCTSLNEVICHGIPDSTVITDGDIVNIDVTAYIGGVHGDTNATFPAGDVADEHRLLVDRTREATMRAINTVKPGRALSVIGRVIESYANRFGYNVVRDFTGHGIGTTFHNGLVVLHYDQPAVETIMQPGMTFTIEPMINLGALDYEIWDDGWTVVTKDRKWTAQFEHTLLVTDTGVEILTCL

O=C1Nc2ccc(F)cc2/C1=N\NC(=O)c1cc(-c2cccc(Br)c2)n[nH]1 [PS9, (E)-3-(3-Bromophenyl)-N′-(5-Fluoro-2-Oxoindolin-3-Ylidene)-1H-Pyrazole-5-Carbohydrazide]
Ki (MtMetAP1c): 310 nM | inhibition at 250 µg/mL (B. subtilis [1]; Bacillus subtilis): ≥ 94% | % Growth Inhibition at 250 µg/mL (B. subtilis [1]; listed as C00009): 100% | inhibition at 250 µg/mL (P. aeruginosa [2]; Pseudomonas aeruginosa): ≥ 94% | % Growth Inhibition at 250 µg/mL (P. aeruginosa [2]; listed as C00009): 100% | inhibition at 250 µg/mL (K. pneumoniae; Klebsiella pneumoniae): ≥ 94% | % Growth Inhibition at 250 µg/mL (K. pneumoniae; listed as C00009): 94% | MIC (B. subtilis [3]): 32 µg/mL (≈ 74.7 µM) | MBC/MIC Ratio (R*) (E. faecalis [4]): 4 | MBC (E. faecalis [4]; Enterococcus faecalis): 32 µg/mL (≈ 74.7 µM) | MBC/MIC Ratio (R*) (S. aureus [5]): 8 | MBC (S. aureus [5]; Staphylococcus aureus): 256 µg/mL (≈ 598 µM) | MBC (P. aeruginosa [6]): 16 µg/mL (≈ 37.4 µM) | growth (E. coli; 2MIC and MIC): no growth observed up to 24 h | time after inoculation at which log phase was observed (E. coli; ½ MIC): 6 h | growth (E. faecalis [7]; 2MIC): no growth was observed in both cultures at 2MIC concentration till 24 h | growth (E. faecalis [7]; MIC): no significant growth was found at MIC up to 10 h | killing (log10 CFU/mL with time) (E. faecalis [8]; 4MIC, after 16 h): significant eradication | killing (log10 CFU/mL with time) (E. faecalis [8]; MIC, till 16 h): no 100% eradication | MBC (HK1): 512 µg/mL (≈ 1200 µM) | MBC (HK32): 64 µg/mL (≈ 149 µM) | MBC (SH28 [9]): 512 µg/mL (≈ 1200 µM) | MBC (JST68): 256 µg/mL (≈ 598 µM) | MIC in Combination (S. aureus [10]; combination PS9 + AMP): 4 µg/mL | MIC in Combination (S. aureus [10]; combination PS9 + CIP): 8 µg/mL | FICI (S. aureus [10]; combination with AMP): 0.37 | FICI (S. aureus [10]; combination with CIP): 0.28 | MIC (HK43): 16 µg/mL (≈ 37.4 µM) | MIC (SH28 [11]): 128 µg/mL (≈ 299 µM) | MIC (SH34): > 1020 µg/mL | MIC (LG24): > 1020 µg/mL | MIC (JST61): 1000 µg/mL (≈ 2340 µM) | MIC (JST78): 1000 µg/mL (≈ 2340 µM) | effect on death of infected larvae (S. aureus 33,591): does not delay this
